The text below walks through data of patent US8173682B2, “Substituted pyridones as inhibitors of poly(ADP-ribose) polymerase (PARP)” (Aventis Pharmaceuticals Inc., priority 2004, dated 2012).

Where a name gives a salt, the structure may show the parent alone.

As usually defined, the IC50 is the concentration that inhibits the measured activity by half.

The test concerns the target T1, recombinant human PARP (PARP1) (Homo sapiens, UniProt P09874).
T1 construct: Full length human PARP (PARP1) is assembled from PCR fragments; His6 tag with TEV site, from the pFastBac-HTb vector (own knowledge of the vector); made in house; host or cells: insect cells, baculovirus (Bac-to-Bac, Gibco-BRL)
In words: PARP enzyme assay, Method A (radioactivity or 'ELISA' enzyme assay with partially purified enzyme). The following applies: recombinant human PARP preparation, radioactive or ELISA enzyme assay. The class given is biochemical. The source says:
Two different methods are employed in determining the activity of the compounds of this invention in inhibiting the activity of PARP enzyme, designated as Method A and Method B respectively as set forth below.
Method A: Cloning and Expression, and Partial Purification of Recombinant Human PARP:
Full length human PARP (PARP1) is assembled from PCR fragments of a clone from a human brain cDNA library and two Incyte clones. The PARP gene (3046 bp) is sub-cloned into pFastBac-HTb vector to give PARP-pFastBac-HTb and the sequence of this clone is verified. PARP-pFastBac-HTb is expressed to obtain protein using the Bac-to-Bac expression protocol from Gibco-BRL. The recombinant virus generated is used to scale up the material for purification.
Cell pellets from cell broth of cells expressing PARP are treated with a cocktail of protease inhibitors and lysed by 4 freeze-thaw cycles. The material is suspended in 10 mM HEPES/0.1M NaCl/pH 7.2, stirred, and then centrifuged. A 40%-70% ammonium sulfate cut of protein pellet is obtained from the supernatant. The pellet is solubilized in 10 mM HEPES/pH 7.2 and centrifuged. The supernatant buffer is exchanged to 10 mM HEPES/pH 7.2/0.1M NaCl/25% glycerol by dialysis or with a desalting column. The enzyme preparation is stored at −20° C. until use.
The compounds of this invention are then tested with this enzyme preparation using either the radioactive enzyme assay or by the “ELISA” enzyme assay as set forth below.
Radioactivity Enzyme Assay:
Incorporation of radioactivity from labeled NAD into acid-precipitated protein is measured. The reaction mixture (volume 100 μL or 50 μL, in a test-tube or 96-well plate) contained 100 μg/mL calf thymus DNA (sonicated), 100 μg/mL histones, 100 mM Tris (pH 8.0), 1.0 mM DTT, 10 mM MgCl2, NAD (200 μM, 0.65 microcurie/mL), and varying amounts of enzyme. The reaction was incubated for 10 min at 37° C. or at room temperature for 60 min. The reaction was stopped and protein precipitated by addition of ice-cold trichloroacetic acid (TCA; 10% or 20% aqueous w/v). After brief storage in ice or at 4° C. for 2 hrs, the reaction mixture is filtered under vacuum through a glass fiber filter (2.5 cm disc, or 96-well filter plate). After washing with TCA and ethanol, the filter is dried and counted for tritium CPM after addition of scintillation fluid.
Incorporation of biotin-NAD into histone coated on plate is measured. A 96-well protein-binding EIA plate is coated with histone and blocked with bovine serum albumin. The reaction mixture (50 μL) contained DNA, buffer, enzyme, (test compound), and 250 μM of NAD and 5 μL of biotin-NAD (Trevigen). After reaction at room temperature the wells are washed and treated with Extravidin (Sigma). After incubation and washing color is developed with the peroxidase substrate TMB (Sigma). The TMB reaction is quenched with 2M sulfuric acid and the absorbance at 450 nm is read.

T1 sequence (P09874 whole entry, the tested form may be a part): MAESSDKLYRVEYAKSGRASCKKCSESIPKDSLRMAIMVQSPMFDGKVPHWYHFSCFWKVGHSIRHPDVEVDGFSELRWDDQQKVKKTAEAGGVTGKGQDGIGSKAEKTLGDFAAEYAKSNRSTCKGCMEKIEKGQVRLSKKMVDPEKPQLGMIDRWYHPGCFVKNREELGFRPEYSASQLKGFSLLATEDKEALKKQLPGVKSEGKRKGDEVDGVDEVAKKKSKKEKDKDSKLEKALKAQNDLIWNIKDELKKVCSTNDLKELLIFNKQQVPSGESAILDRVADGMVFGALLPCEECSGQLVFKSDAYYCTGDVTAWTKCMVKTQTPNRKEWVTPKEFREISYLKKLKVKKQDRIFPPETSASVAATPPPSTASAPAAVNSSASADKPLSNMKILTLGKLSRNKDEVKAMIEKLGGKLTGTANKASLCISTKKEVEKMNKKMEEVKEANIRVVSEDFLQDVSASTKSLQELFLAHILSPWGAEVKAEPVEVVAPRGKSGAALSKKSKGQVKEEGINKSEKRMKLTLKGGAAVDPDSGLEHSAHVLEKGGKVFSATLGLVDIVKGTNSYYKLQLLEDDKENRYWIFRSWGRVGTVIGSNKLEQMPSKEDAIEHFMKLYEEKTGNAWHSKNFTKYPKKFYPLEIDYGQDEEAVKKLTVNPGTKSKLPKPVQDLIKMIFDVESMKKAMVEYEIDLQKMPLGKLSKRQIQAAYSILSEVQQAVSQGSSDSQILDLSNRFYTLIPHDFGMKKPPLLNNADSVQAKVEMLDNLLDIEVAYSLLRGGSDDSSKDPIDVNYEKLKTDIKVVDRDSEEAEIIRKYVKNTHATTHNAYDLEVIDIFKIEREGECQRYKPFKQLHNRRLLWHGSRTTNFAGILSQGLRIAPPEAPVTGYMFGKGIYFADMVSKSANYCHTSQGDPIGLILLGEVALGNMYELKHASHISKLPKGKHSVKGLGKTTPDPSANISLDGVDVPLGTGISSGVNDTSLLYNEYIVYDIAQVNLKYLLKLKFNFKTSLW

As for `CCc1cc(-c2ccc(S(=O)(=O)NCCc3cccnc3)o2)c(C)[nH]c1=O` [Example 48, 5-(5-Ethyl-2-methyl-6-oxo-1,6-dihydropyridin-3-yl)furan-2-sulfonic acid (2-pyridin-3-yl)ethylamide hydrochloride], the IC50 turned out to be 0.36 µM.
Consider `CCc1cc(-c2ccc(S(=O)(=O)NCCCN3CCCC3)o2)c(C)[nH]c1=O` [Example 49, 5-(5-Ethyl-2-methyl-6-oxo-1,6-dihydropyridin-3-yl)furan-2-sulfonic Acid (3-pyrrolidin-1-yl)propylamide hydrochloride], for which the IC50 stood at 0.18 µM.
The value for `CCc1cc(-c2ccc(S(=O)(=O)NCCN3CCCCC3)o2)c(C)[nH]c1=O` [Example 50, 5-(5-Ethyl-2-methyl-6-oxo-1,6-dihydropyridin-3-yl)furan-2-sulfonic acid (2-piperidin-1-yl)ethylamide hydrochloride] was 0.27 µM; that for `CCc1cc(-c2ccc(S(=O)(=O)N3CCC(N4CCCCC4)CC3)o2)c(C)[nH]c1=O` [Example 51, 3-Ethyl-6-methyl-5-[5-(4-piperidin-1-yl)piperidine-1-sulfonylfuran-2-yl]-1H-pyridin-2-one hydrochloride] was 0.22 µM.
As for `CCc1cc(-c2ccc(S(=O)(=O)N3CCCN(C)CC3)o2)c(C)[nH]c1=O` [Example 52, 3-Ethyl-6-methyl-5-[5-(4-methyl-1,4-diazepane-1-sulfonyl)furan-2-yl]-1H-pyridin-2-one hydrochloride], the IC50 was found to be 0.38 µM.
The value for `CCc1cc(-c2ccc(S(=O)(=O)NCCN3CCCC3)o2)c(C)[nH]c1=O` [Example 53, 5-(5-Ethyl-2-methyl-6-oxo-1,6-dihydropyridin-3-yl)furan-2-sulfonic acid (2-pyrrolidin-1-yl)ethylamide hydrochloride] was 0.16 µM; that for `CCc1cc(-c2ccc(S(=O)(=O)NCc3cccnc3)o2)c(C)[nH]c1=O` [Example 55, 5-(5-Ethyl-2-methyl-6-oxo-1,6-dihydropyridin-3-yl)furan-2-sulfonic acid (pyridin-3-yl)methylamide hydrochloride] was 0.22 µM; that for `CCc1cc(-c2ccc(S(=O)(=O)N3CCN(CCN4CCCCC4)CC3)s2)c(C)[nH]c1=O` [Example 57, 3-Ethyl-6-methyl-5-{5-[4-(2-piperidin-1-yl)ethylpiperizine-1-sulfonyl]thiophen-2-yl}-1H-pyridin-2-one dihydrochloride] was 5.7 µM.
With `CCc1cc(-c2ccc(S(=O)(=O)N3CCN(Cc4ccncc4)CC3)s2)c(C)[nH]c1=O` [Example 58, 3-Ethyl-6-methyl-5-[5-(4-pyridin-4-yl)methylpiperizine-1-sulfonyl]thiophen-2-yl}1H-pyridin-2-one dihydrochloride], the IC50 is 2.3 µM.
The value for `CCc1cc(-c2ccc(S(=O)(=O)N3CCN(CCc4ccccn4)CC3)s2)c(C)[nH]c1=O` [Example 60, 3-Ethyl-6-methyl-5-{5-[4-(2-pyridin-2-yl)ethylpiperazine-1-sulfonyl]thiophen-2-yl}-1H-pyridin-2-one dihydrochloride] was 1.7 µM; that for `CCc1cc(-c2ccc(S(=O)(=O)N3CCN(CCN4CCCC4)CC3)s2)c(C)[nH]c1=O` [Example 61, 3-Ethyl-6-methyl-5-{5-[4-(2-pyrrolidin-1-yl)ethylpiperazine-1-sulfonyl]thiophen-2-yl}-1H-pyridin-2-one dihydrochloride] was 0.43 µM.
As for `CCc1cc(-c2ccc(S(=O)(=O)N3CCN(CCCN4CCCC4)CC3)s2)c(C)[nH]c1=O` [Example 62, 3-Ethyl-6-methyl-5-{5-[4-(3-pyrrolidin-1-yl)propylpiperazine-1-sulfonyl]thiophen-2-yl}-1H-pyridin-2-one dihydrochloride], the IC50 stood at 0.6 µM.
Consider `CCc1cc(-c2ccc(S(=O)(=O)N3CCN(CCN(C)C)CC3)s2)c(C)[nH]c1=O` [Example 64, 5-{5-[4-(2-Dimethylaminoethyl)piperazine-1-sulfonyl]thiophen-2-yl}-3-ethyl-6-methyl-1H-pyridn-2-one dihydrochloride], for which the IC50 was determined as 1.5 µM.
Take `CCc1cc(-c2ccc(S(=O)(=O)NCCCN3CCN(C)CC3)s2)c(C)[nH]c1=O` [Example 65, 5-(5-Ethyl-2-methyl-6-oxo-1,6-dihydropyridin-3-yl)thiophene-2-sulfonic acid 3-(4-methylpiperazin-1-yl)propylamide dihydrochloride]: the IC50 was determined as 0.67 µM.
On to `CCc1cc(-c2ccc(S(=O)(=O)N3CCC(N4CCCC4)CC3)s2)c(C)[nH]c1=O` [Example 66, 3-Ethyl-6-methyl-5-{5-[(4-pyrrolidin-1-yl)piperidine-1-sulfonyl]thiophen-2-yl}-1H-pyridin-2-one hydrochloride], for which the IC50 worked out at 0.67 µM.
Then `CCc1cc(-c2ccc(S(=O)(=O)NCCCN3CCCC3=O)s2)c(C)[nH]c1=O` [Example 68, 5-[5-Ethyl-2-methyl-6-oxo-1,6-dihydropyridin-3-yl]thiophene-2-sulfonic acid [3-(2-oxopyrrolidin-1-yl)propyl]amide], with 1.9 µM.
On to `CCc1cc(-c2ccc(S(=O)(=O)NCCN3CCCCC3)s2)c(C)[nH]c1=O` [Example 69, 5-[5-Ethyl-2-methyl-6-oxo-1,6-dihydropyridin-3-yl]thiophene-2-sulfonic acid (2-piperidin-1-yl)ethylamide hydrochloride], for which the IC50 turned out to be 0.26 µM.
For the molecule `CCc1cc(-c2ccc(S(=O)(=O)NCC(c3cccnc3)N3CCOCC3)s2)c(C)[nH]c1=O` (stereo not shown) [Example 72, 5-[5-Ethyl-2-methyl-6-oxo-1,6-dihydropyridin-3-yl]thiophene-2-sulfonic acid 2-(morpholin-4-yl)-2-(pyridin-3-yl)ethylamide dihydrochloride], the IC50 was 1.2 µM.
The value for `CCc1cc(-c2ccc(S(=O)(=O)NCc3cncc(C)n3)s2)c(C)[nH]c1=O` [Example 73, 5-[5-Ethyl-2-methyl-6-oxo-1,6-dihydropyridin-3-yl]thiophene-2-sulfonic acid (6-methylpyrazin-2-yl)methylamide hydrochloride] was 0.42 µM.
As to `CCc1cc(-c2ccc(S(=O)(=O)NC3CCN(CC4CC4)CC3)s2)c(C)[nH]c1=O` [Example 74, 5-[5-Ethyl-2-methyl-6-oxo-1,6-dihydropyridin-3-yl]thiophene-2-sulfonic acid (1-cyclopropylmethylpiperidin-4-yl)amide hydrochloride], the IC50 came to 0.36 µM.
`CCc1cc(-c2ccc(S(=O)(=O)NC3CCN(CC4CCCCC4)CC3)s2)c(C)[nH]c1=O` [Example 75, 5-(5-Ethyl-2-methyl-6-oxo-1,6-dihydropyridin-3-yl)thiophene-2-sulfonic acid (1-cyclohexylmethylpiperidin-4-yl)amide hydrochloride]: the IC50 turned out to be 0.3 µM.
On to `CCc1cc(-c2ccc(S(=O)(=O)NC3CCN(Cc4ccc(Cl)cc4)CC3)s2)c(C)[nH]c1=O` [Example 76, 5-[5-Ethyl-2-methyl-6-oxo-1,6-dihydropyridin-3-yl]-thiophene-2-sulfonic acid 1-(4-chlorobenzyl)piperidin-4-yl]amide hydrochloride], for which the IC50 worked out at 0.23 µM.
On to `CCc1cc(-c2ccc(S(=O)(=O)N(C)C3CCN(C)CC3)s2)c(C)[nH]c1=O` [Example 77, 5-[5-Ethyl-2-methyl-6-oxo-1,6-dihydropyridin-3-yl]thiophene-2-sulfonic acid methyl-(1-methylpiperidin-4-yl]amide hydrochloride], for which the IC50 was 0.28 µM.
The value for `CCc1cc(-c2ccc(S(=O)(=O)NCc3ccc(N(C)C)nc3)s2)c(C)[nH]c1=O` [Example 78, 5-(5-Ethyl-2-methyl-6-oxo-1,6-dihydropyridin-3-yl)thiophene-2-sulfonic acid [(6-dimethylaminopyridin-3-yl)methyl]amide hydrochloride] was 0.2 µM; that for `CCc1cc(-c2ccc(S(=O)(=O)N3CCC(n4ccnc4)CC3)s2)c(C)[nH]c1=O` [Example 79, 3-Ethyl-5-[5-(4-imidazol-1-yl)piperidine-1-sulfonyl)thiophen-2-yl]-6-methyl-1H-pyridin-2-one hydrochloride] was 0.45 µM.
